Our source for the IC50 values is patent US8969395B2, “Triterpenoid derivatives useful as antiproliferative agents” (Universidade de Coimbra, priority 2009, dated 2015).

Common to all, as to type: cell-based
The test system of experiment [1] is HepG2 (human hepatocellular carcinoma). Briefly: Cytotoxic activity, MTT assay, HepG2. Particulars: 72 h, mean ±SD. Here is the method: (§1) The cytotoxic of compounds of formulas (I) and (II) 14-50 was assessed towards human cancer (HepG2, HeLa and Jurkat) cell lines (Table 3 below). Compounds presented on Table 4 were also tested against a non-tumoral liver cell line (Chang liver). The cell viability of HeLa, HepG2 and Chang liver cells was determined by the MTT assay. Briefly, exponentially growing cells were plated in 96-well plates at a density of 1×10^3, 8×10^3 and 5×10^3 cells/well respectively and incubated for 24 h before treatment. The grown medium was replaced with one contained the tested compounds dissolved in DMSO (final DMSO concentration <0.1%) at different concentrations, in triplicate wells, and cells were incubated for 72 h. After incubation with the compounds, the medium was removed and MTT solution (0.5 mg/ml, 100 μl) was added to each well and the plates were incubated again for 1 h. DMSO (100 μl) was then added to dissolve the formazan crystals and the plates were immediately read at 550 nm on an ELISA plate reader (Tecan Sunrise MR20-301, TECAN, Austria). For the Jurkat cells, the cell viability was determined by the XTT assay. Briefly, exponentially growing cells were plated in 96-well plates at a density of 5.5×10^3 cells/well, treated with different concentrations of compounds in triplicate and incubated for 72 h. After incubation with the compounds the XTT labeling mixture (100 μl) were added to each of the wells and after a 4 h incubation period the plates were read at 450 nm on an ELISA plate reader. […] Known for its cytotoxic activity, betulinic acid 2 was used as a positive control in this experimentation. […] All the IC50 results represent an average of a minimum of three experiments and were expressed as means±standard deviation (SD).
For orientation: Formazan colour is commonly taken as a measure of viable cells.

In experiment [2] the test system is Jurkat (human leukemia). Briefly: Cytotoxic activity, XTT assay, Jurkat. Particulars: 72 h, mean ±SD. Here is the method:
as §1

For experiment [3], the system named is HeLa (human cervical adenocarcinoma). Briefly: Cytotoxic activity, MTT assay, HeLa. Particulars: 72 h, mean ±SD. Here is the method:
The cytotoxic of compounds of formulas (I) and (II) 14-50 was assessed towards human cancer (HepG2, HeLa and Jurkat) cell lines (Table 3 below). Compounds presented on Table 4 were also tested against a non-tumoral liver cell line (Chang liver). The cell viability of HeLa, HepG2 and Chang liver cells was determined by the MTT assay. Briefly, exponentially growing cells were plated in 96-well plates at a density of 1×10^3, 8×10^3 and 5×10^3 cells/well respectively and incubated for 24 h before treatment. The grown medium was replaced with one contained the tested compounds dissolved in DMSO (final DMSO concentration <0.1%) at different concentrations, in triplicate wells, and cells were incubated for 72 h. After incubation with the compounds, the medium was removed and MTT solution (0.5 mg/ml, 100 μl) was added to each well and the plates were incubated again for 1 h. DMSO (100 μl) was then added to dissolve the formazan crystals and the plates were immediately read at 550 nm on an ELISA plate reader (Tecan Sunrise MR20-301, TECAN, Austria). For the Jurkat cells, the cell viability was determined by the XTT assay. Briefly, exponentially growing cells were plated in 96-well plates at a density of 5.5×10^3 cells/well, treated with different concentrations of compounds in triplicate and incubated for 72 h. After incubation with the compounds the XTT labeling mixture (100 μl) were added to each of the wells and after a 4 h incubation period the plates were read at 450 nm on an ELISA plate reader. […] Known for its cytotoxic activity, betulinic acid 2 was used as a positive control in this experimentation.

Experiment [4] concerns HT-29 (human colon adenocarcinoma). Briefly: Cytotoxic activity, HT-29. The following applies: mean ±SD. As for the experimental part:
(§2) Compounds presented in Table 6 were also tested in the following cell lines: PC-3 (human prostate adenocarcinoma), LNCaP (human prostate adenocarcinoma), LAPC4 (human prostate adenocarcinoma) and HT-29 (human colon adenocarcinoma).

The subject of experiment [5] is Chang liver (human normal liver cells). Briefly: Cytotoxic activity against non-tumoral cell line, MTT assay. The following applies: 72 h, mean ±SD. Here is the method: as §1
Experiment [6] deals with LAPC4 (human prostate adenocarcinoma). Briefly: Cytotoxic activity, LAPC4. Particulars: mean ±SD. As for the experimental part:
as §2

Experiment [7] has as its system LNCaP (human prostate adenocarcinoma). Briefly: Cytotoxic activity, LNCaP. The following applies: mean ±SD. As for the experimental part: as §2
The test system of experiment [8] is PC-3 (human prostate adenocarcinoma). Briefly: Cytotoxic activity, PC-3. Particulars: mean ±SD. As for the experimental part: as §2

Take `C=C(COC)[C@@H]1CC[C@]2(COC(=O)n3ccnc3C)CC[C@]3(C)[C@H](CC[C@@H]4[C@@]5(C)CC[C@H](O)C(C)(C)[C@@H]5CC[C@]43C)[C@@H]12` [Compound 36, 3β-hydroxy-30-methoxylup-20(29)-en-28-yl-2′-methyl-1H-imidazole-1-carboxylate]: the IC50 (in general, the concentration that inhibits the measured activity by half) in experiment [1] turned out to be 14.4 ± 1.3 µM; in experiment [2] it was 24.8 ± 4.7 µM; in experiment [3] it was 8.9 ± 2.1 µM; in experiment [4] it was 10.4 ± 1.6 µM.

As for `C=C(C)[C@@H]1CC[C@]2(COC(=O)n3ccnc3C)CC[C@]3(C)[C@H](CC[C@@H]4[C@@]5(C)CC[C@H](O)C(C)(C)[C@@H]5CC[C@]43C)[C@@H]12` [Compound 15, 3β-hydroxy-lup-20(29)-en-28-yl-2′-methyl-1H-imidazole-1-carboxylate], the IC50 in experiment [1] is 8.1 ± 0.4 µM; in experiment [2], 15.8 ± 2.4 µM; in experiment [3], 11 ± 1.7 µM; in experiment [4], 16.2 ± 2.1 µM.

With `C=C(C)[C@@H]1CC[C@]2(C(=O)n3ccnc3C)CC[C@]3(C)[C@H](CC[C@@H]4[C@@]5(C)C=CC(=O)C(C)(C)[C@@H]5CC[C@]43C)[C@@H]12` [Compound 47, 28-(2′-methyl-1H-imidazol-1-yl)-lup-1,20(29)-dien-3,28-dione], the half-maximal inhibitory concentration (IC50) in experiment [1] came out at 12.7 ± 1.2 µM; in experiment [2], 9.4 ± 0.8 µM; in experiment [3], 6.4 ± 0.8 µM; in experiment [4], 5.9 ± 0.3 µM.

As for `C=C(C)[C@@H]1CC[C@]2(C(=O)O)CC[C@]3(C)[C@H](CC[C@@H]4[C@@]5(C)C=C(OC(=O)n6ccnc6C)C(=O)C(C)(C)[C@@H]5CC[C@]43C)[C@@H]12` [Compound 50, 2-(2′-methyl-1H-imidazole-1-carbonyloxy)-3-oxolup-1,20(29)-dien-28-oic acid], the IC50 in experiment [1] was 6.8 ± 1.5 µM; in experiment [2] it was 12.5 ± 1.2 µM; in experiment [3], 10.6 ± 0.7 µM; in experiment [4], 9 ± 1.7 µM.

`C=C(C)[C@@H]1CC[C@]2(C(=O)OC)CC[C@]3(C)[C@H](CC[C@@H]4[C@@]5(C)CC[C@H](OC(=O)n6ccnc6C)C(C)(C)[C@@H]5CC[C@]43C)[C@@H]12` [Compound 34, Methyl 3β-(2′-methyl-1H-imidazole-1-carbonyloxy)-lup-20(29)-en-28-oate]: the IC50 in experiment [1] worked out at 13.4 ± 1.7 µM; in experiment [2] it was 16.4 ± 2.4 µM; in experiment [3], 13.4 ± 1.7 µM; in experiment [4], 12.9 ± 0.5 µM.

As to `C=C(C)[C@@H]1CC[C@]2(C(=O)n3ccnc3C)CC[C@]3(C)[C@H](CC[C@@H]4[C@@]5(C)CCC(=O)C(C)(C)[C@@H]5CC[C@]43C)[C@@H]12` [Compound 45, 28-(2′-methyl-1H-imidazol-1-yl)-lup-20(29)-en-3,28-dione], the IC50 in experiment [1] came to 5.5 ± 1.1 µM; in experiment [2], 9.3 ± 2.2 µM; in experiment [3], 4.2 ± 1.2 µM; in experiment [4], 4.7 ± 1.1 µM.

In the case of `C=C(COC)[C@@H]1CC[C@]2(COC(=O)n3ccnc3)CC[C@]3(C)[C@H](CC[C@@H]4[C@@]5(C)CC[C@H](O)C(C)(C)[C@@H]5CC[C@]43C)[C@@H]12` [Compound 35, 3β-hydroxy-30-methoxylup-20(29)-en-28-yl-1H-imidazole-1-carboxylate], the IC50 in experiment [1] was found to be 8.3 ± 0.4 µM; in experiment [2] it was 12.2 ± 1.3 µM; in experiment [3], 9.8 ± 0.6 µM; in experiment [5], 96.4 ± 7.5 µM; in experiment [6] it was 9.5 ± 0.7 µM; in experiment [7], 7.7 ± 0.9 µM. In experiment [8], this compound had an IC50 of 11.4 ± 1.3 µM.

As to “3β-(1H-imidazole-2′-methyl-1-carbonyloxy)-lup-20(29)-en-28-oic acid [Compound 29]”, the IC50 in experiment [1] turned out to be 7.3 ± 1 µM; in experiment [2] it was 16.1 ± 3.3 µM; in experiment [3], 7.5 ± 1.5 µM; in experiment [4] it was 5.7 ± 0.6 µM.

As for `C[C@@H](C=O)[C@@H]1CC[C@]2(COC(=O)n3ccnc3)CC[C@]3(C)[C@H](CC[C@@H]4[C@@]5(C)CC[C@H](OC(=O)n6ccnc6)C(C)(C)[C@@H]5CC[C@]43C)[C@@H]12` [Compound 43, (20R)-lupane-29-oxo-3β,28-di-yl-(1H-imidazole-1-carboxylate)], the IC50 in experiment [1] was found to be 26.1 ± 1.1 µM; in experiment [2], 20.2 ± 1.6 µM; in experiment [3] it was 19.2 ± 1.5 µM; in experiment [5], 156 ± 12.5 µM; in experiment [6], 7.9 ± 1.3 µM; in experiment [7], 6.9 ± 0.3 µM. Moreover, the IC50 in experiment [8] came out at 6.2 ± 0.7 µM.

Regarding `C=C(C)[C@@H]1CC[C@]2(COC(=O)n3ccnc3)CC[C@]3(C)[C@H](CC[C@@H]4[C@@]5(C)CC[C@H](O)C(C)(C)[C@@H]5CC[C@]43C)[C@@H]12` [Compound 14, 3β-hydroxy-lup-20(29)-en-28-yl-1H-imidazole-1-carboxylate], the IC50 came to 4.2 ± 0.3 µM in experiment [1]; 16.3 ± 1.2 µM in experiment [2]; 7.6 ± 0.6 µM in experiment [3]; 79.7 ± 6.4 µM in experiment [5]; 10.3 ± 1.6 µM in experiment [6]; 13 ± 1.5 µM in experiment [7]. Also, the IC50 in experiment [8] amounted to 21 ± 2 µM.

For the compound `C=C(C)[C@@H]1CC[C@]2(C(=O)n3ccnc3C)CC[C@]3(C)[C@H](CC[C@@H]4[C@@]5(C)CC[C@H](OC(=O)n6ccnc6C)C(C)(C)[C@@H]5CC[C@]43C)[C@@H]12` [Compound 31, 28-(2′-methyl-1H-imidazole-1-yl)-28-oxo-lup-20(29)-en-3β-yl-2′-methyl-1H-imidazole-1-carboxylate], the IC50 in experiment [1] was determined as 11.6 ± 0.8 µM; in experiment [2], 20.1 ± 3.2 µM; in experiment [4], 7.8 ± 1.6 µM.

For the compound `Cc1nccn1C(=O)OC[C@]12CC[C@@H]([C@@H](C)C=O)C1[C@H]1CC[C@@H]3[C@@]4(C)CC[C@H](O)C(C)(C)[C@@H]4CC[C@@]3(C)[C@]1(C)CC2` (stereo partly drawn) [Compound 42, 3β-hydroxy-(20R)-lupan-29-oxo-28-yl-2′-methyl-1H-imidazole-1-carboxylate], the IC50 in experiment [1] amounted to 14.3 ± 2.4 µM; in experiment [2] it was 21.3 ± 4.1 µM; in experiment [3] it was 16.6 ± 1.5 µM; in experiment [4], 15.8 ± 1.7 µM.
